From US8962630B2, “Pyrrolopyrimidine compounds and their uses” (Novartis AG, priority 2008, dated 2015)
Where two headings read alike, the source gives them in different places.

Assays:
[1] = target: CDK4/cyclin D1 (Homo sapiens (Human), UniProt P11802); experiment: CDK4/Cyclin D1 enzymatic activity assay (Lance TR-FRET); type: biochemical
How it was run: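 IC50 from a TR-FRET endpoint read of phospho-pRb(S780) after EDTA quench. Reaction: 60 min, room temperature, 3 μM ATP, 175 nM pRb152 substrate, 0.3 nM Sf21-derived His6-CDK4/GST-cyclin D1, pH 7.5 HEPES with MgCl2/MnCl2, 2% DMSO, inhibitor 0.005-10 μM.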

[2] = tested on: pRb negative cells; experiment: cell proliferation of pRb negative cells; type: cell-based; conditions: high concentrations
[3] = tested on: cell cycle; experiment: cell cycle analysis; type: cell-based; conditions: up to 10 uM
[4] = target: CDK1/cyclin B (Homo sapiens (Human), UniProt P06493); experiment: CDK1/Cyclin B enzymatic activity assay (IMAP-FP); type: biochemical
Chain of CDK1/cyclin B (P06493 whole entry, species assumed): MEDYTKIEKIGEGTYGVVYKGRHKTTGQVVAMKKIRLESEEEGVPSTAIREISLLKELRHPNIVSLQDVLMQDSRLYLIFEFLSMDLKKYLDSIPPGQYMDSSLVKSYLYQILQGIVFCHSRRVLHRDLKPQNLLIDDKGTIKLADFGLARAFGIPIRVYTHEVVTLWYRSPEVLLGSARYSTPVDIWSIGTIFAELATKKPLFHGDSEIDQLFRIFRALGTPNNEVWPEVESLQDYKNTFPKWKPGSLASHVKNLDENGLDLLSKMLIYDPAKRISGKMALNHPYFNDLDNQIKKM
Chain of CDK1/cyclin B (P14635 whole entry partner, species assumed): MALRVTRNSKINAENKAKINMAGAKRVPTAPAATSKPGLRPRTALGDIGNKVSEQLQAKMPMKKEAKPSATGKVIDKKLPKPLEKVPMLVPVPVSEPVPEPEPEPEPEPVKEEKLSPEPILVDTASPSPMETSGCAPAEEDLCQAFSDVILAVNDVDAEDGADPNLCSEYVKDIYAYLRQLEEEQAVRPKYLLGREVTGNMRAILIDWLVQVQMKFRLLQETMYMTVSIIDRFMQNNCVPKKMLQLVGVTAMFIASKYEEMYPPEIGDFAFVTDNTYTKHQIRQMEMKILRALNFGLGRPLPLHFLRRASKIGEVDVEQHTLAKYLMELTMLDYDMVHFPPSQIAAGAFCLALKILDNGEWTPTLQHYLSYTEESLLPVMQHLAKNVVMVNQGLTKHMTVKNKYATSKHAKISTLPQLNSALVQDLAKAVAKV
Description: A 384-well microtiter IMAP-FPT™ (Molecular Devices Trade Mark Technology) endpoint assay was used for CDK1/cyclin B kinase activity measurements. The same assay was used for IC50 determination of small molecule inhibitors.

[5] = target: CDK2/cyclin A (Homo sapiens (Human), UniProt P24941); experiment: CDK2/Cyclin A enzymatic activity assay (IMAP-FP); type: biochemical
[6] = Table 2, 3 μM ATP, read-out: CDK4
[7] = Table 2, 20 μM ATP, read-out: CDK1

Chain of CDK4/cyclin D1 (P11802 whole entry): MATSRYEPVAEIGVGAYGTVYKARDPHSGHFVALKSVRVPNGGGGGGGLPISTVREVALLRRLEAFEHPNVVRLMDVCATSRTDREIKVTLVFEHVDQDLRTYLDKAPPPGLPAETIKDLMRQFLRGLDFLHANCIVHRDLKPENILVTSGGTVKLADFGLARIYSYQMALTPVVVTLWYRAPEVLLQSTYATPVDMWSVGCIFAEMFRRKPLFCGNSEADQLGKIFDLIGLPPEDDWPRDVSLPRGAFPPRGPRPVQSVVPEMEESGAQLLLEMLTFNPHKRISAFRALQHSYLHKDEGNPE
Chain of CDK4/cyclin D1 (P24385 whole entry partner): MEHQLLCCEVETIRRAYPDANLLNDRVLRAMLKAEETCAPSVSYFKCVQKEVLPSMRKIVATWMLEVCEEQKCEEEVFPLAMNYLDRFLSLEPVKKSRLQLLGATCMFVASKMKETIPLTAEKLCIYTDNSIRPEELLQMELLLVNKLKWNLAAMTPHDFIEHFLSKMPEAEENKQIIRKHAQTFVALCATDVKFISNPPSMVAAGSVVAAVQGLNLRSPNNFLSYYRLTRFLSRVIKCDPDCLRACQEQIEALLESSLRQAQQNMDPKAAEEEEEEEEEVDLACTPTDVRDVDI

Compound: CN(C)C(=O)c1cc2cnc(Nc3ccc(N4CCNCC4)cc3)nc2n1C1CCCC1 [Example 200, reference compound]
- IC50 ([1]; Table 4, read-out: IC50 (μM) CDK4): 0.005 µM
- inhibition of cell proliferation of pRb negative cells [2]: does inhibit the cell proliferation of pRb negative cells at high concentrations
- cell cycle arrest phase [3]: starts to induce G2/M phase blocks at 1 and 10 uM concentrations
- IC50 ([4]; Table 4, read-out: IC50 (μM) CDK1): > 1.6 µM
- IC50 ([5]; Table 4, read-out: IC50 (μM) CDK2): > 1.4 µM

Compound: C[C@H](O)CN1CCN(c2ccc(Nc3ncc4cc(C(=O)N(C)C)n(C5CCCC5)c4n3)nc2)CC1 [Example 56, 7-Cyclopentyl-2-{5-[4-((S)-2-hydroxy-propyl)-piperazin-1-yl]-pyridin-2-ylamino}-7H-pyrrolo[2,3-d]pyrimidine-6-carboxylic acid dimethylamide]
- IC50 [1, 6]: 0.01 to 0.1 µM
- IC50 [4, 7]: > 15 µM
- IC50 ([5]; Table 2, read-out: CDK2): > 15 µM

Compound: COC(=O)C(C)N1CCN(c2ccc(Nc3ncc4cc(C(=O)N(C)C)n(C5CCCC5)c4n3)nc2)CC1 (centres unmarked) [Example 101, 2-{4-[6-(7-Cyclopentyl-6-dimethylcarbamoyl-7H-pyrrolo[2,3-d]pyrimidin-2-ylamino)-pyridin-3-yl]-piperazin-1-yl}-propionic acid methyl ester]
- IC50 [1, 6]: 0.1 to 1 µM
- IC50 [4, 7]: > 15 µM
- IC50 ([5]; Table 2, read-out: CDK2): > 15 µM

Compound: CN(C)C1CCN(c2ccc(Nc3ncc4cc(C#N)n(C5CCCC5)c4n3)nc2)CC1 [Example 47, 7-Cyclopentyl-2-((4-dimethylaminopiperidin)-1-yl-pyridin-2-ylamino)-7H-pyrrolo[2,3-d]pyrimidine-6-carbonitrile]
- IC50 [1, 6]: 0.001 to 0.01 µM
- IC50 [4, 7]: 2.6 µM
- IC50 ([5]; Table 2, read-out: CDK2): 8.3 µM

Compound: CN(C)C(=O)c1cc2cnc(Nc3ccccn3)nc2n1C1CCC(C)(O)CC1 (centres unmarked) [Example 40, 7-(4-Hydroxy-4-methyl-cyclohexyl)-2-(pyridin-2-ylamino)-7H-pyrrolo[2,3-d]pyrimidine-6-carboxylic acid dimethylamide]
- IC50 [1, 6]: 0.1 to 1 µM
- IC50 [4, 7]: > 15 µM
- IC50 ([5]; Table 2, read-out: CDK2): > 15 µM

Compound: CC(C)CCCN1CCN(c2ccc(Nc3ncc4cc(C(=O)N(C)C)n(C5CCCC5)c4n3)nc2)CC1 [Example 68, 7-Cyclopentyl-2-{5-[4-(4-methyl-pentyl)-piperazin-1-yl]-pyridin-2-ylamino}-7H-pyrrolo[2,3-d]pyrimidine-6-carboxylic acid dimethylamide]
- IC50 [1, 6]: 0.001 to 0.01 µM
- IC50 [4, 7]: > 15 µM
- IC50 ([5]; Table 2, read-out: CDK2): > 15 µM

Compound: CN(C)C(=O)c1cc2cnc(Nc3cnc(N4CCNCC4)cn3)nc2n1C1CCCC1 [Example 48, 7-Cyclopentyl-2-(3,4,5,6-tetrahydro-2-[1,2′]bipyrazinyl-5′-ylamino)-7H-pyrrolo[2,3-d]pyrimidine-6-carboxylic acid dimethylamide]
- IC50 [1, 6]: 0.1 to 1 µM
- IC50 [4, 7]: > 15 µM
- IC50 ([5]; Table 2, read-out: CDK2): > 15 µM

Compound: C[C@H](CO)NCc1ccc(Nc2ncc3cc(C(=O)N(C)C)n(C4CCCC4)c3n2)nc1 [Example 66, 7-Cyclopentyl-2-{5-[((R)-2-hydroxy-1-methyl-ethylamino)-methyl]-pyridin-2 lamino}-7H-pyrrolo[2,3-d]pyrimidine-6-carboxylic acid dimethylamide]
- IC50 [1, 6]: 0.01 to 0.1 µM
- IC50 [4, 7]: > 15 µM
- IC50 ([5]; Table 2, read-out: CDK2): > 15 µM

Compound: CN(C)C(=O)c1cc2cnc(Nc3ccc(N4CC[C@H](O)C4)cn3)nc2n1C1CCCC1 [Example 39, 7-Cyclopentyl-2-[5-((S)-3-hydroxy-pyrrolidin-1-yl)-pyridin-2-ylamino]-7H-pyrrolo[2,3-d]pyrimidine-6-carboxylic acid dimethylamide]
- IC50 [1, 6]: 0.01 to 0.1 µM
- IC50 [4, 7]: > 15 µM
- IC50 ([5]; Table 2, read-out: CDK2): > 15 µM

Compound: CN(C)C(=O)c1cc2cnc(Nc3ccc(N4CCN(CC#N)CC4)cn3)nc2n1C1CCCC1 [Example 84, 2-[5-(4-Cyanomethyl-piperazin-1-yl)-pyridin-2-ylamino]-7-cyclopentyl-7H-pyrrolo[2,3-d]pyrimidine-6-carboxylic acid dimethylamide]
- IC50 [1, 6]: 0.01 to 0.1 µM
- IC50 [4, 7]: > 15 µM
- IC50 ([5]; Table 2, read-out: CDK2): > 15 µM

Compound: CN1CCN(Cc2ccc(Nc3ncc4cc(C(=O)N(C)C)n(C5CCCC5)c4n3)nc2)CC1 [Example 43, 7-Cyclopentyl-2-[5-(4-methyl-piperazin-1-ylmethyl)-pyridin-2-ylamino]-7H-pyrrolo[2,3-d]pyrimidine-6-carboxylic acid dimethylamide]
- IC50 [1, 6]: 0.01 to 0.1 µM
- IC50 [4, 7]: > 15 µM
- IC50 ([5]; Table 2, read-out: CDK2): > 15 µM

Compound: CC(C(=O)O)N1CCN(c2ccc(Nc3ncc4cc(C(=O)N(C)C)n(C5CCCC5)c4n3)nc2)CC1 (centres unmarked) [Example 103, 2-{4-[6-(7-Cyclopentyl-6-dimethylcarbamoyl-7H-pyrrolo[2,3-d]pyrimidin-2-ylamino)-pyridin-3-yl]-piperazin-1-yl}-propionic acid]
- IC50 [1, 6]: 0.01 to 0.1 µM
- IC50 [4, 7]: > 15 µM
- IC50 ([5]; Table 2, read-out: CDK2): > 15 µM

Compound: CCN1CCN(c2ccc(Nc3ncc4cc(C(=O)N(C)C)n(C5CCCC5)c4n3)nc2)CC1 [Example 78, 7-Cyclopentyl-2-[5-(4-ethyl-piperazin-1-yl)-pyridin-2-ylamino]-7H-pyrrolo[2,3d]pyrimidine-6-carboxylic acid dimethylamide]
- IC50 [1, 6]: 0.001 to 0.01 µM
- IC50 [4, 7]: > 15 µM
- IC50 ([5]; Table 2, read-out: CDK2): > 15 µM

Compound: CN(C)C(=O)c1cc2cnc(Nc3ccc(CN4CCN(S(C)(=O)=O)CC4)cn3)nc2n1C1CCCC1 [Example 34, 7-Cyclopentyl-2-[5-(4-methanesulfonyl-piperazin-1-ylmethyl)-pyridin-2-ylamino]-7H-pyrrolo[2,3-d]pyrimidine-6-carboxylic acid dimethylamide]
- IC50 [1, 6]: 0.1 to 1 µM
- IC50 [4, 7]: > 15 µM
- IC50 ([5]; Table 2, read-out: CDK2): > 15 µM
